Assay results reported in PubChem BioAssay (NCI).
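Results reflect a 48-hour exposure of cells in 96-well plates to compound at five concentrations. The concentration for 50% growth inhibition is given as GI50. TGI: total growth inhibition.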

Key:
Assay in all cases: NCI-60 cell line screen, 48 h
NCI-H522 lung = system: NCI-H522 lung
T-47D breast = system: T-47D breast
SK-MEL-2 melanoma = system: SK-MEL-2 melanoma
BT-549 breast = system: BT-549 breast
HCT-15 colon = system: HCT-15 colon
OVCAR-8 ovarian = system: OVCAR-8 ovarian
SF-539 CNS = system: SF-539 CNS
UACC-62 melanoma = system: UACC-62 melanoma
HL-60(TB) leukemia = system: HL-60(TB) leukemia
SW-620 colon = system: SW-620 colon
HCT-116 colon = system: HCT-116 colon
HS 578T breast = system: HS 578T breast
OVCAR-4 ovarian = system: OVCAR-4 ovarian
CAKI-1 renal = system: CAKI-1 renal
UO-31 renal = system: UO-31 renal
MCF7 breast = system: MCF7 breast
MALME-3M melanoma = system: MALME-3M melanoma
CCRF-CEM leukemia = system: CCRF-CEM leukemia
KM12 colon = system: KM12 colon
786-0 renal = system: 786-0 renal
U251 CNS = system: U251 CNS
A549 NSCLC = system: A549 NSCLC
PC-3 prostate = system: PC-3 prostate
EKVX NSCLC = system: EKVX NSCLC
SNB-19 CNS = system: SNB-19 CNS
MDA-MB-435 = system: MDA-MB-435
IGROV1 ovarian = system: IGROV1 ovarian
SK-OV-3 ovarian = system: SK-OV-3 ovarian
MDA-MB-468 breast = system: MDA-MB-468 breast
M14 melanoma = system: M14 melanoma
SK-MEL-28 melanoma = system: SK-MEL-28 melanoma
NCI-H226 lung = system: NCI-H226 lung
SF-268 CNS = system: SF-268 CNS
RPMI-8226 leukemia = system: RPMI-8226 leukemia
HOP-92 NSCLC = system: HOP-92 NSCLC
MOLT-4 leukemia = system: MOLT-4 leukemia
DU-145 prostate = system: DU-145 prostate
NCI-H23 lung = system: NCI-H23 lung
LOX IMVI melanoma = system: LOX IMVI melanoma
SK-MEL-5 melanoma = system: SK-MEL-5 melanoma
SR leukemia = system: SR leukemia
K-562 leukemia = system: K-562 leukemia
OVCAR-5 ovarian = system: OVCAR-5 ovarian
A498 renal = system: A498 renal
NCI-H460 lung = system: NCI-H460 lung
HOP-62 NSCLC = system: HOP-62 NSCLC
RXF 393 renal = system: RXF 393 renal
UACC-257 melanoma = system: UACC-257 melanoma
COLO 205 colon = system: COLO 205 colon
ACHN renal = system: ACHN renal
SF-295 CNS = system: SF-295 CNS
SN12C renal = system: SN12C renal
TK-10 renal = system: TK-10 renal
SNB-75 CNS = system: SNB-75 CNS
MDA-MB-231 breast = system: MDA-MB-231 breast
HT29 colon = system: HT29 colon
HCC-2998 colon = system: HCC-2998 colon
OVCAR-3 ovarian = system: OVCAR-3 ovarian

CCOc1ccc(/C=N/NC(=O)Cn2nc(Cc3ccccc3)c3onc(C)c3c2=O)cc1
GI50 (NCI-H522 lung): > 31.3 µM | TGI (NCI-H522 lung): > 87.2 µM | GI50 (T-47D breast): > 20.4 µM | TGI (T-47D breast): > 100 µM | GI50 (SK-MEL-2 melanoma): 15.5 µM | TGI (SK-MEL-2 melanoma): 33.1 µM | GI50 (BT-549 breast): 13.5 µM | TGI (BT-549 breast): > 24.8 µM | GI50 (HCT-15 colon): > 100 µM | TGI (HCT-15 colon): > 100 µM | GI50 (OVCAR-8 ovarian): > 100 µM | TGI (OVCAR-8 ovarian): > 100 µM | GI50 (SF-539 CNS): 19.5 µM | TGI (SF-539 CNS): > 64.5 µM | GI50 (UACC-62 melanoma): > 19.9 µM | TGI (UACC-62 melanoma): > 100 µM | GI50 (HL-60(TB) leukemia): > 100 µM | TGI (HL-60(TB) leukemia): > 100 µM | GI50 (SW-620 colon): > 100 µM | TGI (SW-620 colon): > 100 µM | GI50 (HCT-116 colon): > 100 µM | TGI (HCT-116 colon): > 100 µM | GI50 (HS 578T breast): 3.57 µM | TGI (HS 578T breast): > 25.6 µM | GI50 (OVCAR-4 ovarian): 2.93 µM | TGI (OVCAR-4 ovarian): > 100 µM | GI50 (CAKI-1 renal): 14 µM | TGI (CAKI-1 renal): > 95.8 µM | GI50 (UO-31 renal): > 100 µM | TGI (UO-31 renal): > 100 µM | GI50 (MCF7 breast): > 100 µM | TGI (MCF7 breast): > 100 µM | GI50 (MALME-3M melanoma): 12 µM | TGI (MALME-3M melanoma): > 100 µM | GI50 (CCRF-CEM leukemia): > 100 µM | TGI (CCRF-CEM leukemia): > 100 µM | GI50 (KM12 colon): > 100 µM | TGI (KM12 colon): > 100 µM | GI50 (786-0 renal): 5.99 µM | TGI (786-0 renal): 17.6 µM | GI50 (U251 CNS): 9.01 µM | TGI (U251 CNS): > 100 µM | GI50 (A549 NSCLC): > 100 µM | TGI (A549 NSCLC): > 100 µM | GI50 (PC-3 prostate): > 100 µM | TGI (PC-3 prostate): > 100 µM | GI50 (EKVX NSCLC): > 100 µM | TGI (EKVX NSCLC): > 100 µM | GI50 (SNB-19 CNS): 16.3 µM | TGI (SNB-19 CNS): > 52.4 µM | GI50 (MDA-MB-435): > 100 µM | TGI (MDA-MB-435): > 100 µM | GI50 (IGROV1 ovarian): 47.4 µM | TGI (IGROV1 ovarian): > 100 µM | GI50 (SK-OV-3 ovarian): 13.8 µM | TGI (SK-OV-3 ovarian): > 66.8 µM | GI50 (MDA-MB-468 breast): 9.09 µM | TGI (MDA-MB-468 breast): 44.6 µM | GI50 (M14 melanoma): > 21.6 µM | TGI (M14 melanoma): > 100 µM | GI50 (SK-MEL-28 melanoma): > 100 µM | TGI (SK-MEL-28 melanoma): > 100 µM | GI50 (NCI-H226 lung): 4.76 µM | TGI (NCI-H226 lung): > 24.7 µM | GI50 (SF-268 CNS): 15.7 µM | TGI (SF-268 CNS): > 100 µM | GI50 (RPMI-8226 leukemia): > 100 µM | TGI (RPMI-8226 leukemia): > 100 µM | GI50 (HOP-92 NSCLC): 5.71 µM | TGI (HOP-92 NSCLC): 21.7 µM | GI50 (MOLT-4 leukemia): > 100 µM | TGI (MOLT-4 leukemia): > 100 µM | GI50 (DU-145 prostate): > 100 µM | TGI (DU-145 prostate): > 100 µM | GI50 (NCI-H23 lung): 30.4 µM | TGI (NCI-H23 lung): > 100 µM | GI50 (LOX IMVI melanoma): > 100 µM | TGI (LOX IMVI melanoma): > 100 µM | GI50 (SK-MEL-5 melanoma): > 100 µM | TGI (SK-MEL-5 melanoma): > 100 µM | GI50 (SR leukemia): > 100 µM | TGI (SR leukemia): > 100 µM | GI50 (K-562 leukemia): > 100 µM | TGI (K-562 leukemia): > 100 µM | GI50 (OVCAR-5 ovarian): > 100 µM | TGI (OVCAR-5 ovarian): > 100 µM | GI50 (A498 renal): 19.9 µM | TGI (A498 renal): > 59.6 µM | GI50 (NCI-H460 lung): > 100 µM | TGI (NCI-H460 lung): > 100 µM | GI50 (HOP-62 NSCLC): 4.4 µM | TGI (HOP-62 NSCLC): 28.4 µM | GI50 (RXF 393 renal): 5.82 µM | TGI (RXF 393 renal): 22.5 µM | GI50 (UACC-257 melanoma): > 100 µM | TGI (UACC-257 melanoma): > 100 µM | GI50 (COLO 205 colon): > 100 µM | TGI (COLO 205 colon): > 100 µM | GI50 (ACHN renal): 11.3 µM | TGI (ACHN renal): > 52.4 µM | GI50 (SF-295 CNS): 14.7 µM | TGI (SF-295 CNS): > 61 µM | GI50 (SN12C renal): > 100 µM | TGI (SN12C renal): > 100 µM | GI50 (TK-10 renal): > 40.2 µM | TGI (TK-10 renal): > 66.2 µM | GI50 (SNB-75 CNS): 2.61 µM | TGI (SNB-75 CNS): 13.8 µM | GI50 (MDA-MB-231 breast): 8.26 µM | TGI (MDA-MB-231 breast): > 37.6 µM | GI50 (HT29 colon): > 100 µM | TGI (HT29 colon): > 100 µM | GI50 (HCC-2998 colon): > 100 µM | TGI (HCC-2998 colon): > 100 µM | GI50 (OVCAR-3 ovarian): > 100 µM | TGI (OVCAR-3 ovarian): > 100 µM

Cc1cc(S(=O)(=O)/N=C(\N)n2nc(C)c(C)c2C)c(SCc2ccccc2)cc1Cl
GI50 (MDA-MB-468 breast): 12.1 µM | TGI (MDA-MB-468 breast): 92.4 µM

COc1cc(C(=O)O)ccc1NC(=O)[C@@H]1N[C@@H](CC(C)(C)C)[C@](C#N)(c2ccc(Cl)cc2F)[C@H]1c1cccc(Cl)c1F
GI50 (MDA-MB-468 breast): 5.12 µM | TGI (MDA-MB-468 breast): 16.2 µM

N#C/C(=C\c1ccc(Cl)cc1)n1nnc2cc(F)c(F)cc21
GI50 (MDA-MB-468 breast): 1.47 µM | TGI (MDA-MB-468 breast): 3.23 µM

O=C(/C=C/C12c3ccccc3C(c3ccccc31)C1C(=O)NC(=O)C12)c1ccco1 (stereo not given)
GI50 (MDA-MB-468 breast): 2.2 µM | TGI (MDA-MB-468 breast): 4.93 µM

Cc1cc(Nc2ncc(Cl)c(Nc3ccccc3S(=O)(=O)C(C)C)n2)c(OC(C)C)cc1C1CCNCC1
GI50 (MDA-MB-468 breast): 1.41 µM | TGI (MDA-MB-468 breast): 3.14 µM

CN1CCN(CCCOc2ccc3ncnc(Nc4ccc(Oc5cccc(C(F)(F)F)c5)c(Cl)c4)c3c2)CC1
GI50 (MDA-MB-468 breast): 1.07 µM | TGI (MDA-MB-468 breast): 2.87 µM

O=[N+]([O-])c1ccccc1/C=C/C=C1c2ccccc2-c2ccccc21
GI50 (MDA-MB-468 breast): 54.6 µM | TGI (MDA-MB-468 breast): > 100 µM
